ChEMBL document CHEMBL6087476, “Positive Charge-Concentrated Dimeric Lipopeptides with Enhanced Protease Resistance: A Potential Solution for Systemic Bacterial Infections” (J Med Chem, 2025)
Values after ≈ are worked out from the molar mass of the structure shown. Active and inactive are the calls of the source. No cut-off for these calls is given here.

Experiments:
Escherichia coli [1] = test: Antibacterial activity against Escherichia coli ATCC 25922 injected intraperitoneally in ICR mouse assessed as reduction in symptoms by measuring thickened respiratory membrane in lung at 10 mg/kg, ip measured after 12 hrs by H and E staining based assay; assay type: functional, organism-based
Escherichia coli [2] = test: Induction of membrane damage in Escherichia coli ATCC 25922 assessed as ruptured membrane by analysing red fluorescence at 8 uM measured after 1 hr incubation by PI - live and dead staining based fluorescence microscopy; assay type: functional, organism-based
Cell membrane [3] = test: Induction of depolarization of cytoplasmic membrane (CM) in Escherichia coli ATCC 25922 assessed as fluorescence changes at 1/2 to 3 times of MIC measured after 1000 to 3000 seconds by fluorescent probe DiSC3-5 assay; assay type: subcellular; conditions: time 1000-3000 sec
Escherichia coli [4] = test: Antimicrobial activity against Escherichia coli ATCC 25922 assessed as increase in absorbance at 8 mg/ml incubated for 8 hrs in presence of chymotrypsin; assay type: functional, organism-based
[5] = Toxicity in ICR mouse assessed as slight manifestation of stooping at 20 mg/kg, ip measured within 1 hr; assay type: organism-based; conditions: in vivo
Escherichia coli [6] = test: Induction of membrane damage in Escherichia coli ATCC 25922 assessed as ruptured membrane by analysing green fluorescence at 8 uM measured after 1 hr incubation by SYTO - live and dead staining based fluorescence microscopy; assay type: functional, organism-based
Staphylococcus aureus [7] = test: Antimicrobial activity against Staphylococcus aureus 11011 assessed as increase in absorbance incubated for 20 to 22 hrs; assay type: functional; conditions: time 20-22 hrs
Escherichia coli [8] = test: Antibiofilm activity against Escherichia coli ATCC 25922 biofilm assessed as inhibition of biofilm formation at 2 uM; assay type: functional, organism-based
Escherichia coli [9] = test: Induction of membrane damage in Escherichia coli ATCC 25922 assessed as damaged membrane surface (irregular vesicles protrusions) at 8 uM measured after 1 hr incubation by SEM analysis; assay type: functional, organism-based
Cell membrane [10] = test: Induction of depolarization of cytoplasmic membrane (CM) in Escherichia coli ATCC 25922 assessed as fluorescence changes at 1/2 to 3 times of MIC by fluorescent probe DiSC3-5 assay; assay type: subcellular; conditions: time 1000-3000 sec
Chymotrypsin = Chymotrypsin (Homo sapiens, UniProt Q99895+P17538+P40313+Q6GPI1); test: Stability of compound assessed as chymotrypsin (unknown origin)-mediated compound structural integrity change at 8 mg/ml incubated for 1 to 8 hrs by 16.5% tricine-SDS-PAGE analysis; assay type: ADME, protein assay; conditions: time 1-8 hrs
HEK-293T = test: Cytotoxicity against human HEK293T cells assessed as cell death measured after 18 to 24 hrs by MTT assay; assay type: functional; conditions: time 18-24 hrs
Salmonella typhimurium = test: Antimicrobial activity against Salmonella typhimurium 14028 assessed as increase in absorbance incubated for 20 to 22 hrs; assay type: functional, Salmonella enterica subsp. enterica serovar Typhimurium; conditions: Salmonella enterica, time 20-22 hrs
Escherichia coli [11] = test: Induction of ROS accumulation in Escherichia coli ATCC 25922 at 4 uM incubated for 30 mins by DCFH-DA assay; assay type: functional, organism-based
[12] = test system: Staphylococcus epidermidis; test: Antimicrobial activity against Staphylococcus epidermidis 12228 assessed as increase in absorbance incubated for 20 to 22 hrs; assay type: functional; conditions: time 20-22 hrs
Escherichia coli [13] = test: Resistance fold, ratio of MIC for Escherichia coli ATCC 25922 measured after 30 day passage period to MIC for Escherichia coli ATCC 25922; assay type: functional
Escherichia coli [14] = test: Antimicrobial activity against Escherichia coli ATCC 25922 assessed as increase in absorbance at MIC concentration in presence of […] ug/ml Lipopolysaccharide incubated for 8 hrs; assay type: functional, organism-based; conditions: dose 64.0 µg/ml
Trypsin = Trypsin (Homo sapiens, UniProt P07477+P07478+P35030); test: Stability of compound assessed as trypsin (unknown origin)-mediated compound structural integrity change at 8 mg/ml incubated for 1 to 8 hrs by RP-HPLC analysis; assay type: ADME, protein assay; conditions: time 1-8 hrs
Escherichia coli [15] = test: Inhibition of respiratory chain dehydrogenase (RCD) activity in Escherichia coli ATCC 25922 at 4 uM incubated for 90 mins by TTC assay
Pseudomonas aeruginosa = test: Antimicrobial activity against Pseudomonas aeruginosa 27853 assessed as increase in absorbance incubated for 20 to 22 hrs; assay type: functional; conditions: time 20-22 hrs
Staphylococcus aureus [16] = test: Antimicrobial activity against Staphylococcus aureus 29213 assessed as increase in absorbance incubated for 20 to 22 hrs; assay type: functional; conditions: time 20-22 hrs
Cell membrane [17] = test: Induction of Outer membrane permeability in Escherichia coli ATCC 25922 incubated for 30 mins by N-phenyl-1-naphthylamine (NPN) uptake assay; assay type: subcellular; conditions: dose 1-16 µM
[18] = Toxicity in ICR mouse assessed as alkaline phosphatase (ALP) level in serum at 5 to 20 mg/kg, ip measured after 3 days; assay type: organism-based; conditions: in vivo, 72 h, dose 5-20 mg/kg, time 3 day
Escherichia coli [19] = test: Antibacterial activity against Escherichia coli ATCC 25922 injected intraperitoneally in ICR mouse assessed as reduction in symptoms by measuring atrophied red medulla in spleen at 10 mg/kg, ip measured after 12 hrs by H and E staining based assay; assay type: functional, organism-based
Escherichia coli [20] = test: Bactericidal activity against Escherichia coli ATCC 25922 assessed as reduction in bacterial viability at 4 uM measured within 1 hr; assay type: functional
Cell membrane [21] = test: Induction of cytoplasmic membrane (CM) permeabilization in Escherichia coli ATCC 25922 assessed as utilization of ONPG at 1/2 MIC; assay type: subcellular
[22] = Stability of compound assessed as pepsin (unknown origin)-mediated compound structural integrity change at 8 mg/ml incubated for 1 to 8 hrs by 16.5% tricine-SDS-PAGE analysis; assay type: ADME; conditions: human, time 1-8 hrs
[23] = Toxicity in ICR mouse assessed as liver weight change at 5 to 20 mg/kg, ip measured after 3 days; assay type: organism-based; conditions: in vivo, 72 h, dose 5-20 mg/kg, time 3 day
Escherichia coli [24] = test: Antimicrobial activity against Escherichia coli ATCC 25922 assessed as increase in absorbance at 8 mg/ml incubated for 8 hrs in presence of pepsin; assay type: functional, organism-based
Acinetobacter baumannii = test: Antimicrobial activity against Acinetobacter baumannii AB1902 assessed as increase in absorbance incubated for 20 to 22 hrs; assay type: functional; conditions: time 20-22 hrs
[25] = Toxicity in ICR mouse assessed as aspartate aminotransferase (AST) level in serum at 5 to 20 mg/kg, ip measured after 3 days; assay type: organism-based; conditions: in vivo, 72 h, dose 5-20 mg/kg, time 3 day
[26] = Toxicity in ICR mouse assessed as blood urea nitrogen (BUN) level in serum at 5 to 20 mg/kg, ip measured after 3 days; assay type: organism-based; conditions: in vivo, 72 h, dose 5-20 mg/kg, time 3 day
Escherichia coli [27] = test: Antibacterial activity against Escherichia coli ATCC 25922 injected intraperitoneally in ICR mouse assessed as reduction in symptoms by measuring disorganized hepatic cords in liver at 10 mg/kg, ip measured after 12 hrs by H and E staining based assay; assay type: functional, organism-based
Escherichia coli [28] = test: Antibacterial activity against Escherichia coli ATCC 25922 injected intraperitoneally in ICR mouse assessed as reduction bacterial load in spleen at 10 mg/kg, ip measured after 12 hrs by H and E staining based assay; assay type: functional, organism-based
Escherichia coli [29] = test: Antibacterial activity against Escherichia coli ATCC 25922 injected intraperitoneally in ICR mouse assessed as reduction in symptoms by measuring atrophy of renal glomeruli at 10 mg/kg, ip measured after 12 hrs by H and E staining based assay; assay type: functional, organism-based
Escherichia coli [30] = test: Antimicrobial activity against Escherichia coli ATCC 25922 assessed as increase in absorbance incubated for 4 hrs in presence of 50% serum; assay type: functional, organism-based

## CCCCCCCCCC(=O)NCCCC[C@H](N)C(=O)NCC(=O)NCC(=O)NCC(=O)N[C@H](CCCNC(=N)N)C(=O)N[C@@H](CCCNC(=N)N)C(=O)N[C@@H](CCCNC(=N)N)C(=O)N1CCC[C@H]1C(=O)N[C@@H](CSSC[C@H](NC(=O)[C@@H]1CCCN1C(=O)[C@H](CCCNC(=N)N)NC(=O)[C@H](CCCNC(=N)N)NC(=O)[C@@H](CCCNC(=N)N)NC(=O)CNC(=O)CNC(=O)CNC(=O)[C@@H](N)CCCCNC(=O)CCCCCCCCC)C(=O)O)C(=O)O
Escherichia coli [1]
  Activity: Active
Escherichia coli [2]
  Activity: Active
Cell membrane [3]
  Activity: Dose-dependent-effect
Escherichia coli [4]
  Activity: Active; Negligible Alteration In Mic Values Found
[5]
  Activity: Toxic
Escherichia coli [6]
  Activity: Active
Staphylococcus aureus [7]
  MIC: 8 µM (≈ 18.2 µg/mL)
Escherichia coli [8]
  Activity: Active
Escherichia coli [9]
  Activity: Active
Cell membrane [10]
  Activity: Time-dependent-effect
Chymotrypsin
  Stability: Stable
HEK-293T
  IC10: 256 µM
Salmonella typhimurium
  MIC: 4 µM (≈ 9.12 µg/mL)
Escherichia coli [11]
  Activity: Active
[12]
  MIC: 8 µM (≈ 18.2 µg/mL)
Escherichia coli [13]
  fold change (FC): <=2
Escherichia coli [14]
  Activity: inactive
Trypsin
  Stability: Stable
Escherichia coli [15]
  inhibition: Active
Pseudomonas aeruginosa
  MIC: 4 µM (≈ 9.12 µg/mL)
Staphylococcus aureus [16]
  MIC: 8 µM (≈ 18.2 µg/mL)
Cell membrane [17]
  Activity: Dose-dependent-effect
[18]
  Activity: Non-toxic
Escherichia coli [19]
  Activity: Active
Escherichia coli [20]
  Activity: 100%
Cell membrane [21]
  Activity: Active
[22]
  Stability: Stable
[23]
  Activity: Non-toxic
Escherichia coli [24]
  Activity: Active; Negligible Alteration In Mic Values Found
Acinetobacter baumannii
  MIC: 8 µM (≈ 18.2 µg/mL)
[25]
  Activity: Non-toxic
[26]
  Activity: Non-toxic
Escherichia coli [27]
  Activity: Active
Escherichia coli [28]
  Activity: Active
Escherichia coli [29]
  Activity: Active
Escherichia coli [30]
  Activity: Active
